Source: patent US20090258917A1 (priority 2005, published 2009)

Molecular target: T1, mPGES-1 (Homo sapiens, UniProt O14684)
T1 construct: made in house; host or cells: E. coli
T1 sequence (O14684 1-152): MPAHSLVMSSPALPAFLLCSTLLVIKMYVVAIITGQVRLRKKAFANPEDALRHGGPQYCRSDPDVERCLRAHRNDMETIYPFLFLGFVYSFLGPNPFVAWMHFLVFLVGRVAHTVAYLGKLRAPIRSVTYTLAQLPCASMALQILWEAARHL
Assay: mPGES-1 assay: conversion of PGH2 to PGE2, PGE2 analysed by HPLC
Type: biochemical
Conditions: biological test described above; 10 μM or below; read-out: concentration giving 50% inhibition of mPGES-1
Description: In the assay mPGES-1 catalyses the reaction where the substrate PGH2 is converted to PGE2. mPGES-1 is expressed in E. coli and the membrane fraction is dissolved in 20 mM NaPi-buffer pH 8.0 and stored at −80° C. […] The stop solution consists of H2O/MeCN (7/3), containing FeCl2 (25 mM) and HCl (0.15 M). The assay is performed at room temperature in 96-well plates.
The following is added chronologically to each well: • 1. 100 μL mPGES-1 in KPi-buffer with glutathione. Total protein concentration: 0.02 mg/mL. • 2. 1 μL inhibitor in DMSO. Incubation of the plate at room temperature for 25 minutes. • 3. 4 μL of a 0.25 mM PGH2 solution. Incubation of the plate at room temperature for 60 seconds. • 4. 100 μL stop solution. • 180 μL per sample is analyzed with HPLC.

IC50	SMILES
≤ 10 µM	CC(C)c1ccc2oc(-c3cc(NC(=O)c4ccccc4Cl)ccc3Cl)nc2c1 [2-chloro-N-[4-chloro-3-(5-isopropylbenzoxazol-2yl)phenyl]benzamide]
≤ 10 µM	O=C(Nc1ccc(Cl)c(-c2nc3cc(Cl)ccc3o2)c1)c1ccccc1[N+](=O)[O-] [N-[4-chloro-3-(5-chlorobenzoxazol-2-yl)phenyl]-2-nitrobenzamide]
≤ 10 µM	O=C(Nc1ccc(Cl)c(-c2nc3cc(Cl)ccc3o2)c1)c1ccc([N+](=O)[O-])cc1Cl [2-chloro-N-[4-chloro-3-(5-chlorobenzoxazol-2-yl)phenyl]-4-nitrobenzamide]
≤ 10 µM	O=C(Nc1ccc(Cl)c(-c2nc3cc(Cl)ccc3o2)c1)c1ccccc1Cl [2-chloro-N-[4-chloro-3-(5-chlorobenzoxazol-2-yl)phenyl]benzamide]
≤ 10 µM	CC(C)c1ccc2oc(-c3cc(NC(=O)c4ccccc4[N+](=O)[O-])ccc3Cl)nc2c1 [N-[4-chloro-3-(5-isopropylbenzoxazol-2-yl)phenyl]-2-nitrobenzamide]

More lines, now with the values behind:

SMILES	IC50
Cc1ccc2oc(-c3cccc(NC(=O)c4ccccc4Cl)c3)nc2c1 [2-chloro-N-[3-(5-methylbenzoxazol-2-yl)phenyl]benzamide]	≤ 10 µM
O=C(Nc1cccc(-c2nc3cc(Cl)cc(Cl)c3o2)c1)c1ccccc1Br [2-bromo-N-[3-(5,7-dichlorobenzoxazol-2-yl)phenyl]benzamide]	≤ 10 µM
Cc1cc2nc(-c3cccc(NC(=O)c4cc(Cl)ccc4Cl)c3)oc2cc1C [2,5-dichloro-N-[3-(5,6-dimethylbemoxazol-2-yl)phenyl]benzamide]	≤ 10 µM
CC(C)c1ccc2oc(-c3cc(NC(=O)c4cccnc4)ccc3Cl)nc2c1 [N-[4-chloro-3-(5-isopropylbenzoxazol-2-yl)phenyl]nicotinamide]	≤ 10 µM
Cc1cc(C)c2oc(-c3ccc(C)c(NC(=O)c4ccc(Cl)cc4Cl)c3)nc2c1 [2,4-dichloro-N-[2-methyl-5-(5,7-dimethylbenzoxazol-2-yl)phenyl]benzamide]	≤ 10 µM
COc1ccc(C(=O)Nc2ccc(Cl)c(-c3nc4cc(C(C)C)ccc4o3)c2)cc1[N+](=O)[O-] [N-[4-chloro-3-(5-isopropylbenzoxazol-2-yl)phenyl]-4-methoxy-3-nitrobenzamide]	≤ 10 µM
CC(C)c1ccc2oc(-c3cccc(NC(=O)c4cc(Cl)ccc4Cl)c3)nc2c1	≤ 10 µM

Same assay, conditions: mPGES-1 expressed in E. coli; 25 min preincubation with inhibitor, 60 s with PGH2, room temperature; read-out: IC50

SMILES	IC50
Cc1ccc2oc(-c3cc(NC(=O)c4ccccc4F)ccc3Cl)nc2c1 [Example 23, N-[4-Chloro-3-(5-methylbenzoxazol-2-yl)phenyl]-2-fluorobenzamide]	2.6 µM
Cc1ccc2oc(-c3cccc(NC(=O)c4ccccc4[N+](=O)[O-])c3)nc2c1 [Example 3, N-[3-(5-Methylbenzoxazol-2-yl)phenyl]-2-nitrobenzamide]	1.9 µM
Cc1ccc2oc(-c3cc(NC(=O)c4ccccc4OC(F)(F)F)ccc3Cl)nc2c1 [Example 20, N-[4-Chloro-3-(5-methylbenzoxazol-2-yl)phenyl]-2-trifluoromethoxybenzamide]	2.3 µM
